Results as given in ChEMBL document CHEMBL1201862, “PubChem BioAssay data set” (2004).
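Compound exposure: 48 hours, 5 concentrations, 96-well plates. GI50 = concentration required for 50% inhibition of growth.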 The source made the active and inactive calls. Rule as the data show it: active = GI50 up to about 1.1 µM and inactive = higher.

Legend:
Assay in all cases: growth of human tumour cells (NCI), 48 h
[1] = system: SNB-75
[2] = system: NCI-H23
[3] = system: Hs-578T
[4] = system: HCT-15
[5] = system: NCI-H522
[6] = system: SR
[7] = system: UACC-257
[8] = system: OVCAR-4
[9] = system: OVCAR-8
[10] = system: SN12C
[11] = system: SF-295
[12] = system: HT-29
[13] = system: MDA-MB-231
[14] = system: SK-MEL-5
[15] = system: NCI-H226
[16] = system: RXF 393
[17] = system: 786-0
[18] = system: EKVX
[19] = system: LOX IMVI
[20] = system: SK-MEL-28

SMILES	GI50 [1]	GI50 [2]	GI50 [3]	GI50 [4] [µM]	GI50 [5]	GI50 [6]	GI50 [7]	GI50 [8]	GI50 [9]	GI50 [10]	GI50 [11]	GI50 [12]	GI50 [13]	GI50 [14]	GI50 [15]	GI50 [16]	GI50 [17]	GI50 [18]	GI50 [19]	GI50 [20]
COc1ccc2c(c1)c1nn(CCN(C)C)c3ccc4c(=O)n(CCN(C)C)c(=O)n2c4c13	< 0.01 µM (active)	< 0.0241 µM (active)	0.0463 µM (active)	< 0.01	< 0.01 µM (active)	< 0.01 µM (active)	0.208 µM (active)	< 0.01 µM (active)	< 0.01 µM (active)	< 0.0234 µM (active)	< 0.01 µM (active)	< 0.01 µM (active)	0.0211 µM (active)	0.198 µM (active)	0.125 µM (active)	0.133 µM (active)	< 0.01 µM (active)	0.0746 µM (active)	0.0171 µM (active)	0.22 µM (active)
COc1nc(NC2OC(COC(C)=O)C(OC(C)=O)C(OC(C)=O)C2OC(C)=O)c(/N=C/C=N/c2c(NC3OC(COC(C)=O)C(OC(C)=O)C(OC(C)=O)C3OC(C)=O)nc(OC)n(C)c2=O)c(=O)n1C (stereo not given)	17 µM (inactive)	> 100 µM (inactive)	28.3 µM (inactive)	> 100	> 100 µM (inactive)	> 100 µM (inactive)	> 100 µM (inactive)	> 100 µM (inactive)	> 100 µM (inactive)	> 100 µM (inactive)	49.2 µM (inactive)	> 100 µM (inactive)	> 100 µM (inactive)	> 100 µM (inactive)	97.5 µM (inactive)	30.5 µM (inactive)	51.5 µM (inactive)	> 100 µM (inactive)	> 100 µM (inactive)	> 100 µM (inactive)
NC1=NNC2(C(N)=N1)c1ccccc1-c1ccccc12	> 10 µM (inactive)	> 10 µM (inactive)	> 10 µM (inactive)	> 10	> 10 µM (inactive)	> 10 µM (inactive)	> 10 µM (inactive)	> 10 µM (inactive)	> 10 µM (inactive)	> 10 µM (inactive)	> 10 µM (inactive)	> 10 µM (inactive)	> 10 µM (inactive)	> 10 µM (inactive)	> 10 µM (inactive)	> 10 µM (inactive)	> 10 µM (inactive)	> 10 µM (inactive)	> 10 µM (inactive)	> 10 µM (inactive)
CSC(CC(=O)O)C(=O)O (stereo not given)	> 100 µM (inactive)	> 100 µM (inactive)	> 100 µM (inactive)	> 100	> 100 µM (inactive)	> 100 µM (inactive)	> 100 µM (inactive)	> 100 µM (inactive)	> 100 µM (inactive)	> 100 µM (inactive)	> 100 µM (inactive)	> 100 µM (inactive)	> 100 µM (inactive)	> 100 µM (inactive)	> 100 µM (inactive)	> 100 µM (inactive)	> 100 µM (inactive)	> 100 µM (inactive)	> 100 µM (inactive)	> 100 µM (inactive)
Oc1ccc2c(c1)-c1c(c3cc(O)ccc3n1CCN1CCOCC1)CC2	19.5 µM (inactive)	25.3 µM (inactive)	27 µM (inactive)	19.2	17.4 µM (inactive)	18.4 µM (inactive)	36.6 µM (inactive)	25.4 µM (inactive)	30.4 µM (inactive)	35.3 µM (inactive)	20.1 µM (inactive)	26 µM (inactive)	17.6 µM (inactive)	16.6 µM (inactive)	18.5 µM (inactive)	19.7 µM (inactive)	21.9 µM (inactive)	30.8 µM (inactive)	17.6 µM (inactive)	18.5 µM (inactive)
O=P1(NCCCl)OCCCN1CCCl (stereo not given) [IFOSFAMIDE]	334 µM (inactive)	417 µM (inactive)	> 500 µM (inactive)	376	300 µM (inactive)	> 500 µM (inactive)	345 µM (inactive)	415 µM (inactive)	388 µM (inactive)	388 µM (inactive)	374 µM (inactive)	406 µM (inactive)	> 500 µM (inactive)	398 µM (inactive)	393 µM (inactive)	376 µM (inactive)	> 428 µM (inactive)	352 µM (inactive)	311 µM (inactive)	385 µM (inactive)
